“And” between values parts separate entries of the source, which are not always exact repeats. Equal values may be shown once.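 Briefly, cells in 96-well plates were exposed to five compound concentrations for 48 h, and endpoints were estimated by linear interpolation. Abbreviation: GI50, concentration required for 50% inhibition of growth. TGI denotes the concentration required for complete inhibition of growth.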
Columns and labels:
Assay in all cases: NCI anticancer screen, dose series, 48 h
HCT-15 colon = tested on: HCT-15 colon
MOLT-4 leukemia = tested on: MOLT-4 leukemia
SR leukemia = tested on: SR leukemia
RXF 393 renal = tested on: RXF 393 renal
HT29 colon = tested on: HT29 colon
HCT-116 colon = tested on: HCT-116 colon
UO-31 renal = tested on: UO-31 renal
NCI-H23 lung = tested on: NCI-H23 lung
HL-60(TB) leukemia = tested on: HL-60(TB) leukemia
ACHN renal = tested on: ACHN renal

SMILES | GI50 (HCT-15 colon) | TGI (HCT-15 colon) | GI50 (MOLT-4 leukemia) | TGI (MOLT-4 leukemia) | GI50 (SR leukemia) | TGI (SR leukemia) | GI50 (RXF 393 renal) | TGI (RXF 393 renal) | GI50 (HT29 colon) | TGI (HT29 colon) | GI50 (HCT-116 colon) | TGI (HCT-116 colon) | GI50 (UO-31 renal) | TGI (UO-31 renal) | GI50 (NCI-H23 lung) | TGI (NCI-H23 lung) | GI50 (HL-60(TB) leukemia) | TGI (HL-60(TB) leukemia) | GI50 (ACHN renal) | TGI (ACHN renal)
COc1cc(C2CC(c3cc(Cl)c(C)cc3O)=NN2c2ccc(S(N)(=O)=O)cc2)cc(OC)c1OC (stereo unspecified) | 3.28 µM | 11.8 µM | 4.46 µM | > 100 µM | 2.47 µM | 7.35 µM | 2.9 µM | 6.02 µM | 1.92 µM | 4.28 µM | 1.63 µM | 2.98 µM | 2.19 µM | 28.9 µM | 2.11 µM | 5.32 µM | 2.95 µM | 14.8 µM | 2.78 µM | 8.33 µM
CCC1C(=O)OCc2c1cc1n(c2=O)Cc2ccccc2-1 (stereo unspecified) |  | > 100 µM |  | > 100 µM |  | > 100 µM |  | > 100 µM |  | > 100 µM |  | > 100 µM |  | > 100 µM |  | > 100 µM |  | > 100 µM |  | > 100 µM
NS(=O)(=O)c1ccc(N=Nc2cc3ccccc3c(C(=O)O)c2O)cc1 |  | > 100 µM |  | > 100 µM |  | > 84.6 µM |  | > 70.1 µM |  | > 100 µM |  | > 100 µM |  | 99 µM |  | > 100 µM |  | > 100 µM |  | 52.5 µM
Cn1ccnc1C(=O)/C=C/c1ccc(CC(=O)Nc2cc(F)c(F)c(F)c2)cc1 | 1.03 µM | 6.58 µM | 0.84 µM | 12.1 µM | 0.861 µM | 8.91 µM | 0.941 µM | 4.11 µM | 0.861 µM | 12.7 µM | 1.22 µM | 4.42 µM | 1.7 µM | 4.96 µM | 2.08 µM | 9.53 µM | 0.716 µM | 2.45 µM | 4.53 µM | 19.2 µM
Nc1ccc(Sc2ccc3c4c2cccc4c(=O)n2c4ccccc4nc32)cc1 | 3.34 µM | 40 µM | 2.57 µM | 7.68 µM | 1.6 µM | 33.1 µM | 6.9 µM | 34.5 µM | 8.55 µM | 73.2 µM | 5.05 µM | 26.7 µM | 2.43 µM | 18.7 µM | 5.03 µM | > 100 µM | 3.71 µM | 12 µM | 2.37 µM | 10.2 µM
C/C(=C\COc1ccc2ccc(=O)oc2c1)CCC(=O)C(C)(C)O |  | 51.1 µM |  | 67.5 µM |  | 47.4 µM |  | 39.9 µM |  | 52.7 µM |  | 32.2 µM |  | 91.9 µM |  | > 100 µM |  | 45.7 µM |  | > 100 µM
COc1ccc(CN[C@H]2CCc3cc(OC)c(OC)c(OC)c3-c3ccc(SC)c(=O)cc32)c(OC)c1OC |  | 0.0938 µM |  | > 100 µM | < 0.01 µM |  |  | 0.0497 µM |  | 0.03 µM | < 0.01 µM | 0.0597 µM and 0.133 µM | 0.0898 µM | 98.9 µM | < 0.01 µM | 0.058 µM and 0.0396 µM | < 0.01 µM |  | 0.0428 µM | > 100 µM
COc1ccc2c(c1)/C(=N/OC(C)=O)c1c-2c(Nc2ccc(/C(C)=N/OC(C)=O)cc2)nc2ccccc12 | 57.5 µM | > 100 µM | 26.1 µM | 72.8 µM | 87.6 µM | > 100 µM | > 100 µM | > 100 µM | > 100 µM | > 100 µM | 35 µM | > 100 µM | 72.8 µM | > 100 µM | 35.5 µM | > 100 µM | 16.3 µM | > 100 µM | 56.6 µM | > 100 µM
CN1CCN(Cc2ccc(NC(=O)c3cncc(C#Cc4cncc5[nH]ncc45)c3)cc2C(F)(F)F)CC1 | 1.69 µM | 6.14 µM | 0.773 µM | 4.44 µM | 1.04 µM | 10.7 µM | 0.665 µM | 1.95 µM | 0.251 µM | 6.24 µM | 0.215 µM | 2.34 µM | 1.01 µM | 2.52 µM | 0.488 µM | 4.29 µM | 0.249 µM | 1.38 µM | 1.14 µM | 4.71 µM
O=[N+]([O-])C1(CO)COC2(OC1)c1ccccc1-c1ccccc12 |  | > 100 µM |  | > 85.2 µM |  | 82.1 µM |  | > 69.1 µM |  | > 100 µM |  | 88.7 µM |  | > 100 µM |  | > 100 µM |  | 58.5 µM |  | > 100 µM
O=C(Nc1ccc(I)cc1F)c1cc(F)ccc1O | 0.499 µM | > 27.1 µM | 0.611 µM | 2.59 µM | 0.413 µM | > 35.7 µM | 0.732 µM | 4.05 µM | 3.44 µM | > 100 µM | 0.352 µM | 1.46 µM | 0.236 µM | 1.34 µM | 0.379 µM | 4.04 µM | 0.382 µM | 1.93 µM | 0.466 µM | > 100 µM
c1ccc(-c2nn(-c3ccccc3)[n+](-c3ccccc3-c3ccccc3)n2)cc1 | 21.5 µM | > 100 µM | 1.8 µM | 17.6 µM | 1.22 µM | 10.9 µM | 2.02 µM | 16.4 µM | 0.673 µM | 18.4 µM | 0.699 µM | > 33.3 µM | 11.6 µM | > 77.6 µM | 0.683 µM | 8.63 µM | 0.238 µM | 0.878 µM | 5.38 µM | > 100 µM
COc1cc2cc(Oc3ccc(NC(=O)Nc4cc(C(F)(F)F)cc(C(F)(F)F)c4)cc3)c(C)nc2cc1OCCN1CCCCC1 | 1.62 µM | 3.09 µM | 1.73 µM | 3.7 µM | 1.75 µM | 5.79 µM | 1.59 µM | 3.2 µM | 1.83 µM | 3.37 µM | 1.75 µM | 3.24 µM | 1.28 µM | 2.55 µM | 1.75 µM | 3.32 µM | 2.25 µM | 4.67 µM | 1.63 µM | 2.99 µM
O=C(CN1CCN(c2cc3c(cc2F)c(=O)c(C(=O)O)cn3C2CC2)CC1)Nc1ccc(C(=O)/C=C/c2ccccc2)cc1 | 3.68 µM | > 100 µM | 5.13 µM | > 100 µM | 1.54 µM | 6.1 µM | 2.5 µM | > 100 µM | 2.99 µM | 10.3 µM | 0.659 µM | 2.68 µM | 2.78 µM | 45.4 µM | 2.48 µM | 14.3 µM | 9.44 µM | > 100 µM | 3.3 µM | 31.9 µM
CC(C)N(C(=O)C12C3C4C5C3C1(C(=O)N(C(C)C)C(C)C)C5C42)C(C)C (stereo unspecified) |  | > 100 µM |  | > 100 µM |  | 38.7 µM |  | > 100 µM |  | > 100 µM |  | > 57.8 µM |  | > 100 µM |  | > 100 µM |  | > 55.6 µM |  | > 100 µM
O=C(O)CNCc1c2ccccc2nc2ccccc12 |  | > 100 µM |  | 44.9 µM |  | > 70.5 µM |  | > 78.3 µM |  | > 84.8 µM |  | > 45.5 µM |  | > 91.5 µM |  | > 100 µM |  | 29.6 µM |  | > 100 µM
Fc1ccc(-c2ncn(C3CCNCC3)c2-c2ccnc(Oc3ccc(Oc4ccccc4)cc3)n2)cc1 | 3.55 µM | 7.29 µM | 3.31 µM | 7.59 µM | 2.1 µM | 6.42 µM | 2.78 µM | 6.1 µM | 2.13 µM | 5.23 µM | 3.47 µM | 6.76 µM | 2.96 µM | 6.29 µM | 4.08 µM | 7.9 µM | 3.93 µM | 8.33 µM | 3.77 µM | 7.19 µM
CC(=O)OC1CC2C(C)(C)C(=O)C=C[C@]2(C)C2CCC3(C)C(=CCC3[C@H](CO)C[C@H](O)C(=O)C(C)(C)O)[C@]12C (stereo partly specified) |  | 40.4 µM |  | 89.5 µM |  | 86.2 µM |  | 31.3 µM |  | 28.1 µM |  | > 100 µM |  | 39.3 µM |  |  |  | 43.8 µM |  | 50 µM
CC(C)=CCCC1(C)C=Cc2c(ccc3c2[nH]c2cc(O)c(C)cc23)O1 (stereo unspecified) | 4.96 µM | 10.8 µM | 4.16 µM | 11.2 µM | 5.55 µM | 14.7 µM | 5.27 µM | 10.1 µM | 4.9 µM | 10.5 µM | 8.79 µM | > 25 µM |  | > 2.5 µM |  |  | 9.48 µM | > 25 µM | 6.83 µM | 20.2 µM
S=C1NC2=C(CCOc3c2ccc2ccccc32)C(c2ccc(Cl)cc2)N1 (stereo unspecified) | 14.3 µM | 86 µM | 25.2 µM | > 100 µM | 30.6 µM | > 100 µM | 39 µM | > 100 µM | 33.5 µM | > 100 µM |  |  | 46.2 µM | > 100 µM | 18.2 µM | 92 µM | 32.7 µM | > 100 µM | 36.4 µM | > 100 µM
CC(C)S(=O)(=O)ON1C(=O)c2ccc([N+](=O)[O-])cc2C1=O |  | > 100 µM |  |  |  | > 100 µM |  | > 100 µM |  | > 100 µM |  | > 100 µM |  | > 100 µM |  | > 100 µM |  | > 100 µM |  | > 100 µM
CCC(C)Cn1c(C)nc2c1C(=O)c1ccccc1C2=O (stereo unspecified) |  | > 100 µM |  | > 100 µM |  | > 100 µM |  | > 100 µM |  | > 100 µM |  |  |  | 87.8 µM |  | 48.4 µM |  | 28.5 µM |  | > 100 µM

From PubChem BioAssay (NCI)
